# Laboratory results as given in publication PMC6526634, “Preparation of bioactive peptides with antidiabetic, antihypertensive, and antioxidant activities and identification of α‐glucosidase inhibitory peptides from soy protein” (Food Science & Nutrition, 2019).
# Where a SMILES comes first, the peptide text is derived from it.
# Key:
# [1] = target: T1, α‐glucosidase from Saccharomyces cerevisiae (Saccharomyces cerevisiae, UniProt P53341); experiment: α‐glucosidase inhibitory activity assay; format: biochemical
# T1 construct: purchased Sigma-Aldrich
# T1 sequence (P53341 whole entry): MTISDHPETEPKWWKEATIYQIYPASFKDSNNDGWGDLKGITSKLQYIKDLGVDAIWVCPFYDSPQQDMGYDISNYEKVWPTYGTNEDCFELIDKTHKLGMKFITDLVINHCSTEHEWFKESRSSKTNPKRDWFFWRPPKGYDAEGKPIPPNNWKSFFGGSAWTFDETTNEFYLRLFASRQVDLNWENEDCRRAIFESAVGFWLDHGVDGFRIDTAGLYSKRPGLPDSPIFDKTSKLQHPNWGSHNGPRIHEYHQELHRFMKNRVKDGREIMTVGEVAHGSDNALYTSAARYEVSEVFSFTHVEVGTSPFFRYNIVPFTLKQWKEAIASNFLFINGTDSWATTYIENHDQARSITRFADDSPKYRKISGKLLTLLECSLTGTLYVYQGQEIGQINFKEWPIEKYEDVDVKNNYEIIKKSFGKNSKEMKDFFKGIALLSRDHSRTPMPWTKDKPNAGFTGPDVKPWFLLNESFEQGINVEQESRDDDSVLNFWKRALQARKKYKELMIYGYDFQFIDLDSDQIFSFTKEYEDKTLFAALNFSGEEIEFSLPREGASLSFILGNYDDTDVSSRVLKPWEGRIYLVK
# Description: All other chemicals and reagents were of analytical grade and commercially available.
# α‐glucosidase inhibitory activity assay was performed according to a method by Kim with slight modifications (Kim, Wang, & Rhee, 2004). The α‐glucosidase inhibitory rate of the hydrolysate was estimated in a 96‐well microplate using a MR‐96A microplate reader (Mindray) by monitoring the amount of 4‐nitrophenol (PNP) released from 4‐nitrophenol‐α‐D‐glucopyranoside (PNPG). A dose (50 μl) of sodium phosphate buffer (pH 6.8, 0.2 M), 50 μL of PNPG (1 mg/ml) dissolved in sodium phosphate buffer, and 50 μl of the samples dissolved in the same buffer were mixed adequately in a 96‐well microplate. Then, it was incubated for 5 min at 37°C, and the reaction started immediately followed by the addition of 10 μl of α‐glucosidase solution (0.2 U/ml of the buffer). The plate was incubated for another 30 min at 37°C, and then, the reaction was terminated by the addition of 80 μl of 1 M Na2CO3 solution. The absorbance of released product PNP was measured immediately at 405 nm. […] The percentage of α‐glucosidase inhibition was calculated as follows:(1) α-glucosidase inhibition rate%=ODA-ODS/ODA-ODB×100 where ODA is the absorbance of the supernatant in which the sample is replaced by the same amount of buffer; ODS is the absorbance of the supernatant with the tested sample; and ODBis the absorbance of the supernatant in which the tested sample and α‐glucosidase solution are replaced by the same amount of buffer.
# [2] = Hydroxyl radical scavenging ability; settings: Fenton reaction, salicylic acid, 37℃, 30 min, absorbance 510 nm; mean ± SD of three replicates
# Description: The antioxidant activity of the soy protein peptides was determined by a hydroxyl radical scavenging assay involving in the Fenton reaction, according to Hanasaki (Hanasaki, Ogava, & Fukui, 1994). The samples were prepared into 0.1, 0.5, 2, 5, and 10 mg/ml. Then, 1 ml of 9 µmol/L FeSO4 solution and 1 ml of salicylic acid–ethanol solution (9 µmol/L，50% ethanol solution) were added respectively and mixed well, with the addition of 1 ml of […] H2O2 (0.03%) reaction initiated. The mixture was incubated in a 37℃ water bath for 30 min and then centrifuged at 2,896 g for 5 min to remove the precipitation. The absorbance of the supernatant was measured at 510 nm. The hydroxyl radical clearance rate was calculated as follows:(4) Hydroxyl radical clearance rate%=1-A1-A2/A0×100 where A 1 is the absorbance of the sample supernatant, A 2 is the absorbance of the supernatant in which the salicylic acid–ethanol is replaced by the same amount of ethanol, and A 0 is the absorbance of the supernatant in which the sample is replaced by distilled water. The ascorbic acid was used as a positive control.
# [3] = Ferric reducing antioxidant power (FRAP) activity; settings: 1, 2, 5, 10, and 20 mg/ml, potassium ferricyanide, pH 6.6, 50℃, 30 min, absorbance 700 nm
# Description: The FRAP assay was used to determine the antioxidative of the samples using the method described by Tsai et al with some modifications (Tsai, Huang, & Mau, 2006) and to configure the sample solution with the concentration of 1, 2, 5, 10, and 20 mg/ml. Using 1 ml of sample mixed with 2.5 ml of 0.2 mol/L sodium phosphate buffer (pH 6.6) and 2.5 ml of 1% potassium ferricyanide solution incubated at 50℃ for 30 min, add 2.5 ml of 10% trichloroacetic acid solution, centrifuged at 1,042 g for 10 min, and then collected 2.5 ml of supernatant mixed with 2.5 ml of distilled water and 0.5 ml of 0.1% ferric chloride solution. The absorbance at 700 nm was measured after 10 min by a 754 PC spectrophotometer (Shanghai, China). FeSO4 aqueous solution was used as positive control.
molecule,measurement,setting,value
CC(C)C[C@H](NC(=O)[C@@H](NC(=O)[C@@H]1CCCN1C(=O)[C@H](CC(C)C)NC(=O)[C@@H]1CCCN1C(=O)[C@H](CC(C)C)NC(=O)[C@@H](N)CC(C)C)C(C)C)C(=O)N[C@@H](CCCCN)C(=O)O (H-LLPLPVLK-OH),IC50,[1],237.4 ± 0.52 µM
CC(C)C[C@H](NC(=O)[C@H](CCCNC(=N)N)NC(=O)[C@H](CC(C)C)NC(=O)[C@H](Cc1c[nH]c2ccccc12)NC(=O)[C@@H](N)CO)C(=O)O [SWLRL] (H-SWLRL-OH),IC50,[1],182.1 ± 0.74 µM
CC(C)C[C@H](NC(=O)[C@H](CCCNC(=N)N)NC(=O)[C@H](CC(C)C)NC(=O)[C@@H](N)Cc1c[nH]c2ccccc12)C(=O)O [WLRL] (H-WLRL-OH),IC50,[1],165.3 ± 0.74 µM
"O=C1O[C@H]([C@@H](O)CO)C(O)=C1O [vitamin C, ascorbic acid]",hydroxyl radical scavenging ability IC50,[2],540 ± 40 µg/mL
"MLPVMR [hexapeptide identified from soy protein AP hydrolysate fraction H1‐2, then synthesized]","α‐glucosidase inhibition, result in words","[1]; synthetic peptide or DEAE‐52 fraction, test concentration not given",did not show inhibitory activity
ferrous sulfate [FeSO4],iron ion reduction ability (FRAP),[3],linearly related to concentration
same,iron ion reduction ability (FRAP),[3]; listed as ferrous sulfate,stronger reduction ability
